From BindingDB's records for doi:10.7270/Q2DZ06QW (Columbia University Molecular Screening Center, 2008)

Molecular target: T1, Bifunctional epoxide hydrolase 2 (Homo sapiens, UniProt P34913)
T1 sequence (P34913 whole entry): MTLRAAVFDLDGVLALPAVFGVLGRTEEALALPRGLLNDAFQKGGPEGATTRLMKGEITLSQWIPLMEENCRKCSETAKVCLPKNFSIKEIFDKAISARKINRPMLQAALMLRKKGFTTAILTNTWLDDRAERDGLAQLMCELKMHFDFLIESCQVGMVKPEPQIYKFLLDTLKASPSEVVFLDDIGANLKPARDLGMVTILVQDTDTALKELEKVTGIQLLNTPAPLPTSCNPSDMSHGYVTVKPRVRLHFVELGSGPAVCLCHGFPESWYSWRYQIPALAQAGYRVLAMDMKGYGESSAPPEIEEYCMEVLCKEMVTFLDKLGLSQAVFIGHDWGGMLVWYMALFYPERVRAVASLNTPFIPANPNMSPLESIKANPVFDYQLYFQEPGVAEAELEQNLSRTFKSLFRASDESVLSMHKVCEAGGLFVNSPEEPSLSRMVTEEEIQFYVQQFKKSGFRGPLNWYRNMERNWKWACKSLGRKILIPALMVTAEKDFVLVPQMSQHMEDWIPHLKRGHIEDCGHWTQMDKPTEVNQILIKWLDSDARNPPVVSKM
Assay: sEH inhibitor concentration-response potency, dose response, biochemical, human sEH, fluorescence, Infinite200 (AID 1026)

| IC50 [nM] | Structure (SMILES) |
| --- | --- |
| > 10000 | CC(C)CN(C#N)c1nc(N2CCOCC2)nc(N2CCOCC2)n1 [(4,6-dimorpholin-4-yl-1,3,5-triazin-2-yl)-(2-methylpropyl)cyanamide] |
| > 10000 | Cc1cc(Cl)c(OCCCNCc2ccccc2)c(Br)c1 [3-(2-bromanyl-6-chloranyl-4-methyl-phenoxy)-N-(phenylmethyl)propan-1-amine;ethanedioic acid] |
| > 10000 | c1ccc(CCN=C2NCCCS2)cc1 [5,6-dihydro-4H-1,3-thiazin-2-yl(phenethyl)amine] |
| 24.4 | O=C(CCCOc1ccc(Cl)cc1Cl)NN=CC1CCCCC1 |
| > 10000 | O=C1Nc2ccc(S(=O)(=O)N3CCOCC3)c3cccc1c23 [6-(4-morpholinylsulfonyl)-1H-benzo[cd]indol-2-one] |
| 19.8 | Cc1cc(NS(=O)(=O)c2ccc(Nc3nc(-c4sc(NC(=O)c5ccccc5)nc4C)cs3)cc2)no1 [MLS000523248] |
| > 10000 | CCOC(=O)CSc1ccc(-c2nc3cc(C)c(C)cc3[nH]2)cn1 [SMR000122535] |
| 63.1 | CCOC(=O)c1sc(NC(=O)Nc2ccc(Cl)cc2)cc1C [5-[(4-chlorophenyl)carbamoylamino]-3-methyl-thiophene-2-carboxylic acid ethyl ester] |
| > 10000 | CC(C)(C)c1ccc(S(=O)(=O)N2CCC(c3nc4cc(Cl)ccc4[nH]3)CC2)cc1 [2-[1-(4-tert-butylphenyl)sulfonylpiperidin-4-yl]-6-chloranyl-1H-benzimidazole] |
| 82.8 | CCOC(=O)c1sc(NC(=O)c2ccc(Cl)s2)cc1C [5-[(5-chlorothiophene-2-carbonyl)amino]-3-methyl-thiophene-2-carboxylic acid ethyl ester] |
| 70.5 | Cc1ccc(NC(=O)NC2CCCCC2)cc1Cl [1-(3-chloranyl-4-methyl-phenyl)-3-cyclohexyl-urea] |
| > 10000 | CCN(CC)S(=O)(=O)c1ccc(N=C2NS(=O)(=O)c3ccccc32)cc1 [4-(1,1-Dioxo-1H-1lambda*6*-benzo[d]isothiazol-3-ylamino)-N,N-diethyl-benzenesulfonamide] |
| > 10000 | Clc1ccc(CON=CNc2ncnc3sccc23)cc1 [N-[(4-chlorophenyl)methoxy]-N'-thieno[2,3-d]pyrimidin-4-yl-methanimidamide] |
| > 10000 | COc1ccc(Cn2ccc(=O)c(Cc3c(Cl)cccc3Cl)c2C)cc1 [3-(2,6-dichlorobenzyl)-1-(4-methoxybenzyl)-2-methyl-4(1H)-pyridinone] |
| > 10000 | Cc1ccccc1NC(=S)NCCC(c1ccccc1)c1ccccc1 [1-(3,3-diphenylpropyl)-3-(2-methylphenyl)thiourea] |

| Structure (SMILES) | IC50 [nM] |
| --- | --- |
| COC(=O)c1ccc(S(=O)(=O)N2C3CCC2CC(NC(=O)NC2CCCCC2)C3)cc1 (stereo not drawn) [4-[3-(3-Cyclohexyl-ureido)-8-aza-bicyclo[3.2.1]octane-8-sulfonyl]-benzoic acid methyl ester] | 8.9 |
| COc1ccc(S(=O)(=O)N2C3CCC2CC(NC(=O)NC2CCCCC2)C3)cc1 (stereo not drawn) [1-Cyclohexyl-3-[8-(4-methoxy-benzenesulfonyl)-8-aza-bicyclo[3.2.1]oct-3-yl]-urea] | 39.4 |
| CCOC(=O)C(O)(c1ccc(NC(=O)NC2CCCCC2)cc1)C(F)(F)F (stereo not drawn) [2-[4-(cyclohexylcarbamoylamino)phenyl]-3,3,3-trifluoro-2-hydroxy-propionic acid ethyl ester] | 121 |
